Data from PubChem BioAssay AID1963872 (Molecular Pharmacology Branch, DTP, NCI, 2024).
Where “and” joins values, the source holds several entries; their conditions need not be identical. Identical values can stand only once.

System: KRAS patient-derived spheroids with HUVEC/MSC, viability
Assay: Anticancer human tumor 519858-162-T-J1-PDC patient-derived colon adenocarcinoma cell line growth inhibition [KRAS2]
Conditions: for viability, T/C: stronger effect = lower value
Outline: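 Combination screen of spheroid viability in tumor-cell co-cultures with endothelial (HUVEC) and mesenchymal stem cell stroma. Each agent was tested in half-log dilutions, topping at clinical Cmax or at 10 microM without a known Cmax.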

[1] = curve of first compound, second compound 0.1 µM
[2] = curve of first compound, second compound 0.316 µM
[3] = curve of first compound, second compound 1 µM
[4] = curve of first compound, second compound 3.16 µM
[5] = curve of first compound, second compound 10 µM
[6] = second compound 0.1 µM, first compound 0.0316 µM
[7] = second compound 0.1 µM, first compound 0.1 µM
[8] = second compound 0.1 µM, first compound 0.316 µM
[9] = second compound 0.1 µM, first compound 1 µM
[10] = second compound 0.1 µM, first compound 3.16 µM
[11] = second compound 0.1 µM, first compound 10 µM
[12] = second compound 0.316 µM, first compound 0.0316 µM
[13] = second compound 0.316 µM, first compound 0.1 µM
[14] = second compound 0.316 µM, first compound 0.316 µM
[15] = second compound 0.316 µM, first compound 1 µM
[16] = second compound 0.316 µM, first compound 3.16 µM
[17] = second compound 0.316 µM, first compound 10 µM
[18] = second compound 1 µM, first compound 0.0316 µM
[19] = second compound 1 µM, first compound 0.1 µM
[20] = second compound 1 µM, first compound 0.316 µM
[21] = second compound 1 µM, first compound 1 µM
[22] = second compound 1 µM, first compound 3.16 µM
[23] = second compound 1 µM, first compound 10 µM
[24] = second compound 3.16 µM, first compound 0.0316 µM
[25] = second compound 3.16 µM, first compound 0.1 µM
[26] = second compound 3.16 µM, first compound 0.316 µM
[27] = second compound 3.16 µM, first compound 1 µM
[28] = second compound 3.16 µM, first compound 3.16 µM
[29] = second compound 3.16 µM, first compound 10 µM
[30] = second compound 10 µM, first compound 0.0316 µM
[31] = second compound 10 µM, first compound 0.1 µM
[32] = second compound 10 µM, first compound 0.316 µM
[33] = second compound 10 µM, first compound 1 µM
[34] = second compound 10 µM, first compound 3.16 µM
[35] = second compound 10 µM, first compound 10 µM
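Also: compound exposure lasted seven days before readout.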
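For viability, T/C in this document: 100% = DMSO vehicle control viability.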

SMILES: COc1cc(Nc2ncc3c(n2)-c2ccc(Cl)cc2C(c2c(F)cccc2OC)=NC3)ccc1C(=O)O + CC1OCC2(CCN(c3cnc(Sc4ccnc(N)c4Cl)c(N)n3)CC2)C1N
- IC50 [1]: > 10 µM
- IC50 [2]: > 10 µM
- IC50 [3]: > 10 µM
- IC50 [4]: 0.0316 µM
- IC50 [5]: > 10 µM
- viability, T/C [6]: 84.6%
- viability, T/C [7]: 67.9%
- viability, T/C [8]: 77.1%
- viability, T/C [9]: 63.4%
- viability, T/C [10]: 62%
- viability, T/C [11]: 73.3%
- viability, T/C [12]: 69.3%
- viability, T/C [13]: 62.8%
- viability, T/C [14]: 88.1%
- viability, T/C [15]: 75.7%
- viability, T/C [16]: 63%
- viability, T/C [17]: 89%
- viability, T/C [18]: 60.4%
- viability, T/C [19]: 58.7%
- viability, T/C [20]: 57.9%
- viability, T/C [21]: 49.7%
- viability, T/C [22]: 66.5%
- viability, T/C [23]: 111%
- viability, T/C [24]: 55.4%
- viability, T/C [25]: 58%
- viability, T/C [26]: 45.7%
- viability, T/C [27]: 42.9%
- viability, T/C [28]: 71.2%
- viability, T/C [29]: 71.1%
- viability, T/C [30]: 73%
- viability, T/C [31]: 48.9%
- viability, T/C [32]: 49.5%
- viability, T/C [33]: 53.4%
- viability, T/C [34]: 74.9%
- viability, T/C [35]: 78%

SMILES: COc1cc(Nc2ncc3c(n2)-c2ccc(Cl)cc2C(c2c(F)cccc2OC)=NC3)ccc1C(=O)O + C=CC(=O)N1CCN(c2nc(OCC3CCCN3C)nc3c2CCN(c2cccc4cccc(C)c24)C3)CC1CC#N
- IC50 (curve of first compound, second compound 0.0316 µM): > 10 µM
- IC50 [1]: > 10 µM
- IC50 [2]: > 10 µM
- IC50 [3]: > 10 µM
- IC50 [4]: > 10 µM
- viability, T/C (second compound 0.0316 µM, first compound 0.0316 µM): 104%
- viability, T/C (second compound 0.0316 µM, first compound 0.1 µM): 87.2%
- viability, T/C (second compound 0.0316 µM, first compound 0.316 µM): 97.3%
- viability, T/C (second compound 0.0316 µM, first compound 1 µM): 90.3%
- viability, T/C (second compound 0.0316 µM, first compound 3.16 µM): 74.6%
- viability, T/C (second compound 0.0316 µM, first compound 10 µM): 98%
- viability, T/C [6]: 89.1%
- viability, T/C [7]: 82.2%
- viability, T/C [8]: 102%
- viability, T/C [9]: 78.8%
- viability, T/C [10]: 90.5%
- viability, T/C [11]: 130%
- viability, T/C [12]: 105%
- viability, T/C [13]: 89.9%
- viability, T/C [14]: 63.2%
- viability, T/C [15]: 75%
- viability, T/C [16]: 82.5%
- viability, T/C [17]: 111%
- viability, T/C [18]: 103%
- viability, T/C [19]: 80.8%
- viability, T/C [20]: 66.8%
- viability, T/C [21]: 69.2%
- viability, T/C [22]: 99.8%
- viability, T/C [23]: 110%
- viability, T/C [24]: 74.5%
- viability, T/C [25]: 83%
- viability, T/C [26]: 75.3%
- viability, T/C [27]: 77.2%
- viability, T/C [28]: 109%
- viability, T/C [29]: 74.3%

SMILES: Cn1ncnc1[C@H]1c2n[nH]c(=O)c3cc(F)cc(c23)N[C@@H]1c1ccc(F)cc1 + COc1cc2nc(C)nc(NC(C)c3cc(N)cc(C(F)(F)F)c3)c2cc1OC1CCOC1
- IC50 [1]: > 0.1 µM
- IC50 [2]: > 0.1 µM
- IC50 [3]: > 0.1 µM
- IC50 [4]: > 0.1 µM
- IC50 [5]: > 0.1 µM
- viability, T/C (second compound 0.1 µM, first compound 0.000316 µM): 71.8%
- viability, T/C (second compound 0.1 µM, first compound 0.001 µM): 95.3%
- viability, T/C (second compound 0.1 µM, first compound 0.00316 µM): 73.5%
- viability, T/C (second compound 0.1 µM, first compound 0.01 µM): 71.8%
- viability, T/C [6]: 76.9%
- viability, T/C [7]: 80.1%
- viability, T/C (second compound 0.316 µM, first compound 0.000316 µM): 68.2%
- viability, T/C (second compound 0.316 µM, first compound 0.001 µM): 68.7%
- viability, T/C (second compound 0.316 µM, first compound 0.00316 µM): 59.2%
- viability, T/C (second compound 0.316 µM, first compound 0.01 µM): 74.9%
- viability, T/C [12]: 77%
- viability, T/C [13]: 74.5%
- viability, T/C (second compound 1 µM, first compound 0.000316 µM): 74.7%
- viability, T/C (second compound 1 µM, first compound 0.001 µM): 67.3%
- viability, T/C (second compound 1 µM, first compound 0.00316 µM): 70.9%
- viability, T/C (second compound 1 µM, first compound 0.01 µM): 97.4%
- viability, T/C [18]: 68%
- viability, T/C [19]: 58%
- viability, T/C (second compound 3.16 µM, first compound 0.000316 µM): 45.8%
- viability, T/C (second compound 3.16 µM, first compound 0.001 µM): 60.3%
- viability, T/C (second compound 3.16 µM, first compound 0.00316 µM): 45.7%
- viability, T/C (second compound 3.16 µM, first compound 0.01 µM): 69.8%
- viability, T/C [24]: 47.8%
- viability, T/C [25]: 70.6%
- viability, T/C (second compound 10 µM, first compound 0.000316 µM): 49.7%
- viability, T/C (second compound 10 µM, first compound 0.001 µM): 55.6%
- viability, T/C (second compound 10 µM, first compound 0.00316 µM): 57.8%
- viability, T/C (second compound 10 µM, first compound 0.01 µM): 50.7%
- viability, T/C [30]: 57.8%
- viability, T/C [31]: 48.4%

SMILES: CCNC(=O)CC1N=C(c2ccc(Cl)cc2)c2cc(OC)ccc2-n2c(C)nnc21 (stereo not drawn) + COc1cc2nc(C)nc(NC(C)c3cc(N)cc(C(F)(F)F)c3)c2cc1OC1CCOC1
- IC50 [1]: 1.41 µM
- IC50 [2]: 0.656 µM
- IC50 [3]: 0.531 µM
- IC50 [4]: 0.367 µM
- IC50 [5]: 0.106 µM
- viability, T/C [6]: 82.4%
- viability, T/C [7]: 90.9%
- viability, T/C [8]: 86.2%
- viability, T/C [9]: 67.9%
- viability, T/C [10]: 7.95%
- viability, T/C [11]: 5.72%
- viability, T/C [12]: 78.8%
- viability, T/C [13]: 125%
- viability, T/C [14]: 78.3%
- viability, T/C [15]: 33.1%
- viability, T/C [16]: 8.12%
- viability, T/C [17]: 9.79%
- viability, T/C [18]: 71.1%
- viability, T/C [19]: 58.3%
- viability, T/C [20]: 66.2%
- viability, T/C [21]: 31.5%
- viability, T/C [22]: 5.67%
- viability, T/C [23]: 7.44%
- viability, T/C [24]: 70%
- viability, T/C [25]: 90.5%
- viability, T/C [26]: 55.4%
- viability, T/C [27]: 13.8%
- viability, T/C [28]: 6.83%
- viability, T/C [29]: 9.55%
- viability, T/C [30]: 58%
- viability, T/C [31]: 48%
- viability, T/C [32]: 33%
- viability, T/C [33]: 7.95%
- viability, T/C [34]: 6.57%
- viability, T/C [35]: 5.25%

SMILES: CCN1CCN(Cc2ccc(Nc3ncc(F)c(-c4cc(F)c5nc(C)n(C(C)C)c5c4)n3)nc2)CC1
- viability, T/C (compound 0.00316 µM): 87.7% [middle of 5 runs]
- viability, T/C (compound 0.01 µM): 82.6% [middle of 5 runs]
- viability, T/C (compound 0.1 µM): 79.7% [middle of 5 runs]
- viability, T/C (compound 0.316 µM): 72.4% [middle of 5 runs]
- viability, T/C (compound 1 µM): 44.8% [middle of 5 runs]
- IC50 (curve of compound): 879 nM [middle of 5 runs]

SMILES: COc1cc2nc(C)nc(NC(C)c3cc(N)cc(C(F)(F)F)c3)c2cc1OC1CCOC1 (stereo not drawn)
- IC50 (compound alone, run of 07/19/2021): > 10 µM and 8.93 µM
- IC50 (compound alone, run of 07/26/2021): 9.77 µM and > 10 µM and 3.56 µM

SMILES: Cn1nccc1Nc1nccc(-c2cc3c(s2)C(C)(C)N(CCN2CCOCC2)C3=O)n1 + CC1OCC2(CCN(c3cnc(Sc4ccnc(N)c4Cl)c(N)n3)CC2)C1N
- IC50 [1]: 3.83 µM
- IC50 [2]: 1.74 µM
- IC50 [3]: 0.341 µM
- IC50 [4]: 0.188 µM
- IC50 [5]: 0.144 µM
- viability, T/C [6]: 70.9%
- viability, T/C [7]: 71.8%
- viability, T/C [8]: 60.6%
- viability, T/C [9]: 64.3%
- viability, T/C [10]: 54.4%
- viability, T/C [11]: 33%
- viability, T/C [12]: 66.6%
- viability, T/C [13]: 52.6%
- viability, T/C [14]: 69.5%
- viability, T/C [15]: 62.7%
- viability, T/C [16]: 36.2%
- viability, T/C [17]: 25.1%
- viability, T/C [18]: 50.2%
- viability, T/C [19]: 53.7%
- viability, T/C [20]: 48.6%
- viability, T/C [21]: 41%
- viability, T/C [22]: 28.1%
- viability, T/C [23]: 30.8%
- viability, T/C [24]: 53.6%
- viability, T/C [25]: 62.3%
- viability, T/C [26]: 41.5%
- viability, T/C [27]: 35.6%
- viability, T/C [28]: 23.4%
- viability, T/C [29]: 28.1%
- viability, T/C [30]: 47.5%
- viability, T/C [31]: 63.1%
- viability, T/C [32]: 38.5%
- viability, T/C [33]: 36.8%
- viability, T/C [34]: 26.5%
- viability, T/C [35]: 34.1%
